Series [1] has as its target T1, FAK (Homo sapiens, UniProt Q05397).
T1 construct: purchased Promega V1971
Description: ADP-Glo kinase assay FAK. The settings on record: mean ± SEM (n = 3). It counts as biochemical. Here is the method: (§1) The kinase assays were performed and quantified according to the manufacturer’s instructions using the ADP-Glo™ Kinase Assay Kit for FAK (Promega, V1971), PYK2 (Promega, V4083) and InsR (Promega, V3901). Each kinase reaction mixture was prepared to contain the compounds of interest. After thorough pipetting, 25 μL of the mixture was added to each well and incubated for 1 h at room temperature. Subsequently, 25 μL of ADP-Glo reagent was added, followed by a 40 m incubation at room temperature. Next, 50 μL of the kinase detection reagent was added, and the mixture was incubated for an additional 30 m at room temperature. Luminescence was measured using the Tecan Spark 10M (Integration time: 1 s) (Männedorf, Switzerland).
(In ADP-Glo the light output rises with the ADP produced.)

The target of series [2] is T2, PYK2 (Homo sapiens, UniProt Q14289).
T2 construct: purchased Promega V4083
T2 sequence (Q14289 whole entry): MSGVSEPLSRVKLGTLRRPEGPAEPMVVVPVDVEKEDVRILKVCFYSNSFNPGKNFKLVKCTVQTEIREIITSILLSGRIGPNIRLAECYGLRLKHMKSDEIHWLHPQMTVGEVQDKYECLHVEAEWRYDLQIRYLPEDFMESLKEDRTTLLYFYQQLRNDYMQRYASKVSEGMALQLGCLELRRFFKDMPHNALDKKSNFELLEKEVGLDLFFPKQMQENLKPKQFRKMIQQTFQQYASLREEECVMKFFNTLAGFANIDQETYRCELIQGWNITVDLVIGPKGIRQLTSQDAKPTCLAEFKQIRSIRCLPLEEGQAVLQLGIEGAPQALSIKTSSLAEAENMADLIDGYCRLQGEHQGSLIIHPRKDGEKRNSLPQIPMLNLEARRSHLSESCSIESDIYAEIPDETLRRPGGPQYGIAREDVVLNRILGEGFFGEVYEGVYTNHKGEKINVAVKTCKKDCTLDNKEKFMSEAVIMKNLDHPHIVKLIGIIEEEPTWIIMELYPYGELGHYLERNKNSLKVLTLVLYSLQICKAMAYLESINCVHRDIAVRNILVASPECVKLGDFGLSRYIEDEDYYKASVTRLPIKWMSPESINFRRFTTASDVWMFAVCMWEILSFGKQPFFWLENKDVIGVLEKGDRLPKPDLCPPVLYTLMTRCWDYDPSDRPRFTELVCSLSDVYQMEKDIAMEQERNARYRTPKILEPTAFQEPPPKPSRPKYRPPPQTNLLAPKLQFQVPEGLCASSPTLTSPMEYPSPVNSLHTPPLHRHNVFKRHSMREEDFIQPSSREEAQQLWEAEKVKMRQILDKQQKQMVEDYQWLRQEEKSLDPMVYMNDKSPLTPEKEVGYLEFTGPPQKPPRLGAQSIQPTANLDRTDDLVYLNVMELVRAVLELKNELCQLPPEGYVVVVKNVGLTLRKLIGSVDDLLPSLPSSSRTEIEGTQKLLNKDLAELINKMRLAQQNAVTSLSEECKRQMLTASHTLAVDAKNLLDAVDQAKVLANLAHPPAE
As to the kind of experiment: ADP-Glo kinase assay PYK2. It counts as biochemical. Particulars: mean ± SEM (n = 3). How it is done: as §1

Series [3] concerns the target T3, Insulin Receptor (InsR) (Homo sapiens, UniProt P06213).
T3 construct: purchased Promega V3901
As to the kind of experiment: ADP-Glo kinase assay InsR. The settings on record: mean ± SEM (n = 3). It counts as biochemical. Here is the method:
as §1

The target in series [4] is T4, FAK [pY397] in MDA-MB-231 cells (Homo sapiens, UniProt Q05397).
T4 construct: endogenous in cells; host or cells: MDA-MB-231
T4 sequence (Q05397 whole entry): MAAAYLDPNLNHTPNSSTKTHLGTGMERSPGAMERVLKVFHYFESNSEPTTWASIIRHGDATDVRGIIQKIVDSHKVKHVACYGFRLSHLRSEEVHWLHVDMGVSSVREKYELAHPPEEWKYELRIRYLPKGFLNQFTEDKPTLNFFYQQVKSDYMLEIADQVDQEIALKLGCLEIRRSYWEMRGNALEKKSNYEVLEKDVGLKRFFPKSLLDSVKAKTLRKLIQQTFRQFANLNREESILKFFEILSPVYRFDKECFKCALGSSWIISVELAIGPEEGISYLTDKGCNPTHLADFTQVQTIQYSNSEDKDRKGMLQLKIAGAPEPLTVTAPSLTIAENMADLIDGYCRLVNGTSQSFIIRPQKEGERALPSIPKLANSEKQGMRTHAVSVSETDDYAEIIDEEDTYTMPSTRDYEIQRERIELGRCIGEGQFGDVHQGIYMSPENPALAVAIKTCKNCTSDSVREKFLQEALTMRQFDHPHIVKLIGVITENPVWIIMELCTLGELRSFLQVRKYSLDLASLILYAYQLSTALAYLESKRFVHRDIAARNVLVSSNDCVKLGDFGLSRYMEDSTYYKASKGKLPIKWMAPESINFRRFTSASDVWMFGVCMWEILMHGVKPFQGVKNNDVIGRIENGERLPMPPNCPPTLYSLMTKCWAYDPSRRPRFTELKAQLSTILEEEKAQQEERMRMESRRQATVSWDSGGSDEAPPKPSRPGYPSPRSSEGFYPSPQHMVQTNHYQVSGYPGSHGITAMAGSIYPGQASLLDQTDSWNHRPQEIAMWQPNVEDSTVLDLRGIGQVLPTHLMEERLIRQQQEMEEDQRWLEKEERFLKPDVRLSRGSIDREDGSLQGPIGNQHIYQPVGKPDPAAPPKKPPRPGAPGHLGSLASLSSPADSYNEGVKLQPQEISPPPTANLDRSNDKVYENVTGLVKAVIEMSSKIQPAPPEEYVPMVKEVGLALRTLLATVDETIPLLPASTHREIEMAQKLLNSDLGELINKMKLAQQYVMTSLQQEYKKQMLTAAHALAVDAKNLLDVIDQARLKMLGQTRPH
As to the kind of experiment: FAK [pY397] ELISA in MDA-MB-231 cells. It counts as cell-based. Particulars: MDA-MB-231, 1 h treatment, mean ± SEM (n = 3); read-out: IC50 FAK phosphorylation (pY397 ELISA). Here is the method:
TNBC cells were seeded into 60 mm dishes at a density of 1 × 10^6 cells/dish in 5 mL of culture media. After 24 h, cells were treated with concentrations ranging from 1 nM to 10 μM of SJP1602 for 1 h, and cell lysates were prepared to detect phospho-FAK levels. The FAK [pY397] enzyme-linked immunosorbent assay was performed according to the manufacturer’s instructions. The absorbance at 450 nm was measured to quantify the results.
For orientation: In an ELISA, binding on a coated surface is turned into a signal by an enzyme label.

Series [5] relates to MDA-MB-231 cells. Description: Colony formation assay. It counts as cell-based, human. The settings on record: 1 μM or 2 μM, 11 days. Here is the method:
MDA-MB-231 cells were seeded at 2.5 × 10^2 cells/well in 12-well plates. FAK inhibitors (SJP1602, VS-6063, GSK2256098) were added 24 h post seeding without changing the media. After 7 days, the cells were replaced with fresh media containing 10% FBS and the same initial concentration of the FAK inhibitor. After 11 days, the cells were fixed with 4% PFA for 10 m at room temperature and stained with 0.5% crystal violet dissolved in 25% methanol for 20 min at room temperature. The cells were then washed with distilled water, dried, and images of the entire plate were obtained.

The test system of series [6] is MDA-MB-231 cells. As to the kind of experiment: 2D cell invasion assay (Boyden chamber, Matrigel). It counts as cell-based, human. Particulars: 5 μM, 48 h, Matrigel-coated Boyden chamber. Here is the method:
Cell invasion capacity was analyzed using the Boyden chamber assay. The 24-well Boyden chambers with Matrigel-coated filters (8 μm pore size) were obtained from Becton-Dickinson (San Diego, CA, USA). Cells treated with vehicle or FAK inhibitors (SJP1602, VS-6063, GSK2256098) at a concentration of 5 μM were resuspended in serum-free media and 5 × 10^5 cells were added to the Matrigel-coated upper compartment of the invasion chambers. Fresh culture medium with 5% FBS was added to the lower compartment. After 48 h, cells on the upper side of the filter were removed using cotton swabs. The underside of the filter was fixed in 100% methanol, washed in PBS, and stained using crystal violet. Cells that invaded the Matrigel were analyzed using a microscope (Nikon, TE2000). Image analysis was performed using the color analysis function in Adobe Photoshop 2021 (Version 22.4.2, Adobe, Adobe (San Jose, CA, USA)). Quantitative data were obtained from color measurement records in Adobe Photoshop 2021.

Series [7] in a line: Cytotoxicity on normal cell line CCD-18Co. It counts as cell-based. Particulars: human, CCD-18Co cells (normal cell line); read-out: Cytotoxicity on Normal Cell Lines IC50.
Series [8] is described as follows: Cytotoxicity on normal cell line WI38. It counts as cell-based. Particulars: human, WI38 cells (normal cell line); read-out: Cytotoxicity on Normal Cell Lines IC50.
A short description of series [9]: Cytotoxicity on normal cell line FDF. It counts as cell-based. The settings on record: FDF cells (normal cell line); read-out: Cytotoxicity on Normal Cell Lines IC50.
The nature of series [10]: Toxicity and body weight in xenograft mice. Particulars: mouse xenograft experiments, 20-80 mg/kg po daily.
Description: Upon establishment of tumors, with an average tumor volume reaching approximately 100 mm^3, mice were grouped and subjected to daily oral dosing. […] The duration of drug administration was defined for 2 weeks based on the growth rate of the vehicle group of each xenografted tumor. The tumor volume was measured three times a week for potency measurement, and the body weight of mice was also measured three times a week for toxicity evaluation in vivo.

Each structure is given as a SMILES string.

T3 sequence (P06213 28-1382): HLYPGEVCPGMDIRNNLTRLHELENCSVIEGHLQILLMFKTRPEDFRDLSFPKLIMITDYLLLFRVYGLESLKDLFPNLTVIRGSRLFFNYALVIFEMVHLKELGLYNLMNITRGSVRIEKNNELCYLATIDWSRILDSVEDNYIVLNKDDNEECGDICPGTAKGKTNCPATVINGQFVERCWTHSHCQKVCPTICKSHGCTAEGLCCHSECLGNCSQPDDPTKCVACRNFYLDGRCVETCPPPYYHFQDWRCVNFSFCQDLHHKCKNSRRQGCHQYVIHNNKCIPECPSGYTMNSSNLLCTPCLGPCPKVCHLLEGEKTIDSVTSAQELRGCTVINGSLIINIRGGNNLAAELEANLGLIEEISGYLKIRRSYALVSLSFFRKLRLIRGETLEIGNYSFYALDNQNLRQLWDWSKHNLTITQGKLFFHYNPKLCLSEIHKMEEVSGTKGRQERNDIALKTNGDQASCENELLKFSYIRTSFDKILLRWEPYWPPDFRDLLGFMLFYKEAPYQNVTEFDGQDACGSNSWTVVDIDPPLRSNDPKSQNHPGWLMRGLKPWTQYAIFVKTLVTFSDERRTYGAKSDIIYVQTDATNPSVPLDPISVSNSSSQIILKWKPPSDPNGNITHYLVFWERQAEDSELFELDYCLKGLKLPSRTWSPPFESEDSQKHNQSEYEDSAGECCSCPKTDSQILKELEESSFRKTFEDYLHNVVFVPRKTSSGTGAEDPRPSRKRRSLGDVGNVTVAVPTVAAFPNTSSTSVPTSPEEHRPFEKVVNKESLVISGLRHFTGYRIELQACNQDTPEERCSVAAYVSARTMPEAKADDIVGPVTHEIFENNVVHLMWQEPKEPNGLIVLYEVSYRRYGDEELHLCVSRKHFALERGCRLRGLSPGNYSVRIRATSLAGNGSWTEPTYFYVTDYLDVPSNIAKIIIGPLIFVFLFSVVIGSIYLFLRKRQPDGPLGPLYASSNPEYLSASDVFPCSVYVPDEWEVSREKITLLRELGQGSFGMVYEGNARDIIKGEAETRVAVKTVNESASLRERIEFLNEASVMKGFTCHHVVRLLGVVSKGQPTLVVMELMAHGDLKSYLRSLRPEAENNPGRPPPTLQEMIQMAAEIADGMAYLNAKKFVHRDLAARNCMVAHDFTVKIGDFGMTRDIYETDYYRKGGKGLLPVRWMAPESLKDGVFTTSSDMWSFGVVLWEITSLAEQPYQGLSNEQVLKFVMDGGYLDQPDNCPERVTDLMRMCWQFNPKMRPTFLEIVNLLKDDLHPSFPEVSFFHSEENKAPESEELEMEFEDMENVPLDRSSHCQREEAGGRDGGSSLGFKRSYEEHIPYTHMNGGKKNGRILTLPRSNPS
T1 sequence (Q05397 whole entry): as the sequence (Q05397 whole entry) above

Regarding `CNC(=O)c1cccc(C)c1Nc1nc(Nc2ccc(N3CCN(C4C5CC6CC4CC(O)(C6)C5)CC3)cc2OC)ncc1C(F)(F)F` (stereo not shown) [SJP1602, 2-((2-((4-(4-((2s,5r)-5-hydroxyadamantan-2-yl)piperazin-1-yl)-2-methoxyphenyl)amino)-5-(trifluoromethyl)pyrimidin-4-yl)amino)-N,3-dimethylbenzamide], the 50% inhibitory concentration (IC50) (commonly the concentration that inhibits the measured activity by half) is 3.7 ± 0.007 nM in series [1]; 24.7 ± 0.919 nM in [2]; 1170 ± 60.1 nM in [3]; 20 ± 7 nM in series [4]; above 10000 nM in series [7]; 7280 nM in series [8]. Further, the 50% inhibitory concentration (IC50) in [9] was above 10000 nM. The “formation of MDA-MB-231 colonies” value in [5] is reported as “dose-dependent decrease”. The “invasion of MDA-MB-231 cells” value in series [6] is listed as “markedly inhibited”. Besides, in [10], the “signs of toxicity or weight loss in xenograft mice” value is reported as “no signs of toxicity or significant weight loss”.

The record behind these values is PMC10528299, “Targeting FAK/PYK2 with SJP1602 for Anti-Tumor Activity in Triple-Negative Breast Cancer” (Current Issues in Molecular Biology, 2023).
